Literature values, collected in US8318954B2, “Cleavable carnitine compound” (Nou Life Sciences, Inc., priority 2006, dated 2012).
Entries after “also recorded” stand apart in the source; their conditions may differ. Where two headings read alike, the source gives them in different places.

Columns and labels:
diabetic rats [1] = conditions: streptozocin diabetic rats, sciatic nerve; amount administered not specified; cited from earlier work
diabetic rats [2] = conditions: diabetic rat, 30 days after sciatic nerve cutting; diet: 200 mg/kg acetyl L-carnitine, 200 mg/kg carnitine mixture, 50 mg/kg α-lipoic acid daily; cited from earlier work
mice and rats = conditions: cited from earlier work
chinchilla laniger = conditions: cited from earlier work
Wobbler mice = conditions: twenty days oral, acetyl L-carnitine 200 mg/kg, carnitine mixture 200 mg/kg, α-lipoic acid 50 mg/kg; cited from earlier work
[3] = tested on: rats with unilateral sciatic nerve division; conditions: cited from earlier work
[4] = tested on: rats with unilateral sciatic nerve division; conditions: 50 mg/kg/day i.p. for 6 weeks; compared to no treatment; cited from earlier work
[5] = tested on: patients having diabetic neuropathy; conditions: cited from earlier work
[6] = tested on: subcutaneous adipocytes in rats; conditions: long-term administration, rat; cited from earlier work
[7] = three weeks after noise exposure

In the case of CC(=O)O[C@H](CC(=O)[O-])C[N+](C)(C)C [Acetyl-L-carnitine], the NMCV (diabetic rats [1]) is listed as 34.5 ± 2.1 m/sec, the “Density of tibial nerve degenerate elements” value (diabetic rats [2]) is listed as 0.16 ± 0.02 per 100 nm^2 and the “Number of tibial nerve degenerate elements” value (diabetic rats [2]) is listed as 560 ± 61. For the same molecule, the “dose that can be parenterally administered” value (mice and rats; parenteral, mice and rats) was “up to 250 mg/kg”, the “tolerability on prolonged administration” value (mice and rats; via the diet, 30 consecutive days, 200 mg/kg acetyl L-carnitine together with 100 mg/kg alpha lipoic acid) was “well tolerated” and the “outer hair cell loss” value (chinchilla laniger; 4- to 10-kHz region) was < 10%. The “inner and outer hair cell loss” value (chinchilla laniger; in vivo) was “reduced”, the “threshold shift at 2 to 4 kHz” value (chinchilla laniger; [7]) was “no threshold shift” and the “threshold shifts at 6 to 8 kHz” value (chinchilla laniger; [7]) was < 10 dB. The “% increase in running time” value (Wobbler mice) was 35 ± 3.2%, the “number of TUNEL-positive neurons” value ([3]; 2 weeks after axotomy, high-dose 50 mg/kg/day parenteral, 50 mg/kg/day) was 3 /group and the “number of TUNEL-positive neurons” value ([3]; 2 weeks after axotomy, high-dose 50 mg/kg/day parenteral, listed as ALCAR, 50 mg/kg/day) was “significantly reduced”. For the same molecule, the neuron loss ([3]; 2 weeks after axotomy, high-dose 50 mg/kg/day, 50 mg/kg/day) was 2%, the neuron loss ([3]; 2 weeks after axotomy, high-dose 50 mg/kg/day, listed as ALCAR, 50 mg/kg/day) was “significantly reduced” and the “number of TUNEL-positive neurons” value ([3]; 2 weeks after axotomy, low-dose 10 mg/kg/day parenteral) was 6 /group. For the same molecule, the neuron loss ([3]; 2 weeks after axotomy, low-dose 10 mg/kg/day) was 0%, the neuron loss ([3]; two months after axotomy, high-dose 50 mg/kg/day) was −4% and the “immunostaining for Schwann cells, percentage area” value [4] was 86 % increase. The “immunostaining for Schwann cells, total area” value [4] was 111 % increase, the “immunostaining for nerve fibres, percentage area” value [4] was 229 % increase and the “immunostaining for nerve fibres, total area” value [4] was 264 % increase. For the same molecule, the “regeneration into the distal stump, percentage area” value [4] was 3,034 % increase, the “regeneration into the distal stump, total area” value [4] was 2,242 % increase and the tolerability ([5]; 1000 mg/day i.m. 10 days, then 2000 mg/day oral 355 days, 12 month period) was “well tolerated”. For the same molecule, the “nerve conduction velocity NCV” value ([5]; at 6- and 12 months, compared to placebo) was “statistically significant improvement”, the Amplitude ([5]; at 12 months, patients with impaired electrophysiological parameters at baseline, compared to placebo) was “statistically significant improvement” and the “pain (visual analogue scale)” value ([5]; compared to placebo) was “significant reduction; also recorded: statistically significant improvement”. For the same molecule, the “size of subcutaneous adipocytes in aging skin” value [6] was “blocks progressive increase in size”.
